Results: EP3644968B1, “LEVOCLOPERASTINE FENDIZOATE SUSPENSION HAVING ENHANCED DISSOLUTION AND RESUSPENDABILITY” (Ilko Ilaç Sanayi Ve Ticaret Anonim Sirketi, priority 2017, dated 2019)

Experiments:
[1] = test system: cough caused by tracheal mechanical stimulus; conditions: guinea pig, relative to codeine; cited from earlier work
cough = conditions: cited from earlier work
[2] = particle size distribution by laser diffraction (Malvern Mastersizer-2000, dry dispersion); type: physicochemical; conditions: volume particle size distribution of the drug substance used
Description: Particle size is determined by laser light scattering using a particle size analyzer, such as the proprietary Mastersizer™ apparatus in a dry dispersion system available from Malvern Instruments Ltd. (Malvern Mastersizer-2000, single narrow mode). Laser diffraction enables to measure particle size distributions by measuring the angular variation by scattering light intensity as a laser beam passes through a dispersed particulate sample. Large particles scatter light at small angles relative to the laser beam and small particles scatter light at large angles. The angular scattering intensity data is then analyzed to calculate the size of the particles responsible for creating the scattering pattern, using the Mie theory of light scattering. The particle size is reported as a volume equivalent sphere diameter.
A common approach to define the distribution width is to cite three values on the x-axis as D10, D50 and D90. The D50, named as median, has been defined as the diameter where 50 percent of the distribution lies below this value. Similarly, D90 has been defined as 90 percent of the distribution lies below, and 10 percent of the population lies below the D10.

Row | SMILES | efficacy against cough, times greater than codeine [1] | duration of action of a single dose (cough; single dose) | initial response after oral administration (cough; therapeutic dose range 10-20 mg three times daily for adults, oral) | d(0.1) [2] | d(0.5) [2] | d(0.9) [2]
1 | Clc1ccc(C(OCCN2CCCCC2)c2ccccc2)cc1 (racemic) [cloperastine] | 1.9 times | 3 to 4 h | 20 to 30 min | – | – | –
2 | Clc1ccc([C@@H](OCCN2CCCCC2)c2ccccc2)cc1.O=C(O)c1ccccc1C(=O)c1ccc(O)c(-c2ccccc2)c1 [Levocloperastine fendizoate] | – | – | – | d(0.1): 3.031 µm | d(0.5): 13.126 µm | d(0.9): 39.322 µm
